From patent publication US20260207623A1, “USE OF ESTETROL IN HEPATICALLY IMPAIRED PATIENTS” (ESTETRA SRL, priority 2022, published 2026)

Assay: Phase 1 pharmacokinetic study of a single oral dose of 20 mg E4 monohydrate in female subjects with normal hepatic function and mild, moderate or severe hepatic impairment (plasma, LC-MS/MS, non-compartmental analysis)
Assay type: in vivo, human
Conditions: for AUC0-24 h, GM / AUC0-24 h, Mean / AUC0-24 h, Median / AUCinf, GM / AUCinf, Mean / AUCinf, Median / AUClast, GM / AUClast, Mean / AUClast, Median / Cmax, GM / Cmax, Mean / Cmax, Median / T1/2, GM / T1/2, Mean / T1/2, Median / Tmax, Median / λz, GM / λz, Mean / λz, Median: single oral dose 20 mg E4 monohydrate, plasma
Experimental: This was a Phase 1, multi-centre, open-label, PK, and safety study of a single oral dose of 20 mg E4 monohydrate in female subjects with normal hepatic function (Group 1), mild hepatic impairment (Group 2), moderate hepatic impairment (Group 3), and severe hepatic impairment (Group 4), as defined using the Child-Pugh classification at Screening.
The study consisted of an eligibility Screening period (within 28 days prior to study drug administration), an Assessment Period with in-house period and outpatient visits (including a single oral dose of 20 mg E4 on Day 1), and a follow up visit. All subjects were confined to the study site from Day-1 (the day before dosing) until Day 4 and returned to the site every day from Day 5 to Day 9. Alternatively, the subjects could stay for a prolonged in-house period in agreement with the Investigator. The follow-up visit occurred on Day 14 (+2 days).
All subjects arrived at the study site in the morning of Day-1 in a fasted state (no food for at least 8 h, water was allowed) to have the scheduled assessments performed in order to confirm eligibility as outlined in the inclusion and exclusion criteria (Section 2.3.1 and Section 2.3.2, respectively). In the morning of Day 1 following an overnight fast, the subjects received oral dosing of 20 mg E4 monohydrate and remained at the site. Study-related assessments were performed at time points indicated in the Schedule of Assessments in Table 2.
Serial blood sampling for PK assessments started on Day 1 and proceeded until Day 9 according to the Pharmacokinetic Sampling Schedule presented in Table 3.
Each enrolled subject was to receive a single oral dose of 20 mg of E4 (estetrol) as monohydrate as a film-coated tablet.
Study drug was administered to subjects in the morning after an overnight fast of at least 8 h.
Calculation of non-compartmental PK parameters were done using WinNonlin™ Professional, Version 6.3 or higher.
The primary PK parameters to be analyzed for E4 in plasma: • Cmax=maximum observed plasma concentration • AUCinf=area under the concentration-time curve (AUC) from time zero extrapolated to infinity
The analysis of E4 and the metabolites E4-3-glucuronide and E4-16-glucuronide in plasma samples were performed at the Bioanalytical Laboratory of the CRO using a validated liquid chromatography-mass spectrometry/mass spectrometry method.
Individual and mean plasma concentrations at each sampling time point for E4 are presented by listings and descriptive summary statistics including means, geometric means (GMs), medians, ranges, standard deviations (SD) and coefficients of variation (CV). Individual, mean and/or median concentrations per hepatic function group were plotted versus time on semilogarithmic scales.
PK parameters were calculated by non-compartmental analysis. PK parameters were analysed using descriptive statistics and are presented by hepatic function group.
Analysis of variance (ANOVA) were used to compare primary PK parameters of E4 (Cmax and AUCinf) between subjects with hepatic impairment and subjects with normal hepatic function in an exploratory approach, using the log-transformed value of each PK parameter as dependent variable, and the hepatic impairment group (normal, mild, moderate, and severe) as a fixed classification factor. Geometric least squares means were used to calculate the ratios of primary PK parameters for each hepatic impairment group to those in the control group, along with 90% confidence intervals (CIs).
Additionally, the impact of age and BMI on the effect of hepatic impairment were evaluated using an ANOVA model similar as the ANOVA model described above, but with the interaction between each factor and the hepatic impairment group included as an additional factor.
The relationship between log-transformed PK parameters (Cmax and AUCinf) and continuous parameters (albumin, total bilirubin, and prothrombin time) used for the Child-Pugh score was explored by a linear regression approach. […]

AUC0-24 h, GM (Mild hepatic impairment): 1017.08 ng·h/mL
AUC0-24 h, Mean (Mild hepatic impairment): 1038.91 ng·h/mL
AUC0-24 h, Median (Mild hepatic impairment): 1061.93 ng·h/mL
AUCinf, GM (Mild hepatic impairment): 1380.13 ng·h/mL
AUCinf, Mean (Mild hepatic impairment): 1389.24 ng·h/mL
AUCinf, Median (Mild hepatic impairment): 1358.39 ng·h/mL
AUClast, GM (Mild hepatic impairment): 1350.15 ng·h/mL
AUClast, Mean (Mild hepatic impairment): 1364.27 ng·h/mL
AUClast, Median (Mild hepatic impairment): 1329.47 ng·h/mL
Cmax, GM (Mild hepatic impairment): 711.100 ng/mL
Cmax, Mean (Mild hepatic impairment): 745.750 ng/mL
Cmax, Median (Mild hepatic impairment): 712.500 ng/mL
T1/2, GM (Mild hepatic impairment): 24.080 h
T1/2, Mean (Mild hepatic impairment): 24.634 h
T1/2, Median (Mild hepatic impairment): 25.699 h
Tmax, Median (Mild hepatic impairment): 0.490 h
λz, GM (Mild hepatic impairment): 0.0300 h⁻¹
λz, Mean (Mild hepatic impairment): 0.0295 h⁻¹
λz, Median (Mild hepatic impairment): 0.0270 h⁻¹
AUC0-24 h, GM (Moderate hepatic impairment): 1244.09 ng·h/mL
AUC0-24 h, Mean (Moderate hepatic impairment): 1293.40 ng·h/mL
AUC0-24 h, Median (Moderate hepatic impairment): 1323.09 ng·h/mL
AUCinf, GM (Moderate hepatic impairment): 1459.97 ng·h/mL
AUCinf, Mean (Moderate hepatic impairment): 1518.70 ng·h/mL
AUCinf, Median (Moderate hepatic impairment): 1534.85 ng·h/mL
AUClast, GM (Moderate hepatic impairment): 1375.56 ng·h/mL
AUClast, Mean (Moderate hepatic impairment): 1435.97 ng·h/mL
AUClast, Median (Moderate hepatic impairment): 1459.15 ng·h/mL
Cmax, GM (Moderate hepatic impairment): 734.210 ng/mL
Cmax, Mean (Moderate hepatic impairment): 785.625 ng/mL
Cmax, Median (Moderate hepatic impairment): 759.500 ng/mL
T1/2, GM (Moderate hepatic impairment): 13.050 h
T1/2, Mean (Moderate hepatic impairment): 14.217 h
T1/2, Median (Moderate hepatic impairment): 12.381 h
Tmax, Median (Moderate hepatic impairment): 0.985 h
λz, GM (Moderate hepatic impairment): 0.0500 h⁻¹
λz, Mean (Moderate hepatic impairment): 0.0580 h⁻¹
λz, Median (Moderate hepatic impairment): 0.0560 h⁻¹
AUC0-24 h, GM (Normal hepatic function): 643.44 ng·h/mL
AUC0-24 h, Mean (Normal hepatic function): 676.36 ng·h/mL
AUC0-24 h, Median (Normal hepatic function): 613.15 ng·h/mL
AUCinf, GM (Normal hepatic function): 896.29 ng·h/mL
AUCinf, Mean (Normal hepatic function): 946.46 ng·h/mL
AUCinf, Median (Normal hepatic function): 932.27 ng·h/mL
AUClast, GM (Normal hepatic function): 867.85 ng·h/mL
AUClast, Mean (Normal hepatic function): 919.86 ng·h/mL
AUClast, Median (Normal hepatic function): 894.59 ng·h/mL
Cmax, GM (Normal hepatic function): 353.110 ng/mL
Cmax, Mean (Normal hepatic function): 419.750 ng/mL
Cmax, Median (Normal hepatic function): 513.000 ng/mL
T1/2, GM (Normal hepatic function): 18.220 h
T1/2, Mean (Normal hepatic function): 19.245 h
T1/2, Median (Normal hepatic function): 17.755 h
Tmax, Median (Normal hepatic function): 0.500 h
λz, GM (Normal hepatic function): 0.0400 h⁻¹
λz, Mean (Normal hepatic function): 0.0402 h⁻¹
λz, Median (Normal hepatic function): 0.0391 h⁻¹
AUC0-24 h, GM (Severe hepatic impairment): 1977.74 ng·h/mL
AUC0-24 h, Mean (Severe hepatic impairment): 2295.22 ng·h/mL
AUC0-24 h, Median (Severe hepatic impairment): 1922.86 ng·h/mL
AUCinf, GM (Severe hepatic impairment): 2081.97 ng·h/mL
AUCinf, Mean (Severe hepatic impairment): 2467.86 ng·h/mL
AUCinf, Median (Severe hepatic impairment): 1959.93 ng·h/mL
AUClast, GM (Severe hepatic impairment): 2057.13 ng·h/mL
AUClast, Mean (Severe hepatic impairment): 2443.30 ng·h/mL
AUClast, Median (Severe hepatic impairment): 1951.71 ng·h/mL
Cmax, GM (Severe hepatic impairment): 901.010 ng/mL
Cmax, Mean (Severe hepatic impairment): 952.625 ng/mL
Cmax, Median (Severe hepatic impairment): 894.000 ng/mL
T1/2, GM (Severe hepatic impairment): 8.450 h
T1/2, Mean (Severe hepatic impairment): 10.103 h
T1/2, Median (Severe hepatic impairment): 8.542 h
Tmax, Median (Severe hepatic impairment): 0.500 h
λz, GM (Severe hepatic impairment): 0.0800 h⁻¹
λz, Mean (Severe hepatic impairment): 0.0995 h⁻¹
λz, Median (Severe hepatic impairment): 0.0882 h⁻¹
time to primary peak of GM plasma concentrations (all groups): ≤ 1 h
time post dose until which concentrations remained above LLOQ in at least half of the subjects (mild hepatic impairment): 96 h
time post dose until which concentrations remained above LLOQ in at least half of the subjects (moderate hepatic impairment): 72 h
time post dose until which concentrations remained above LLOQ in at least half of the subjects (normal hepatic function): 96 h
time post dose until which concentrations remained above LLOQ in at least half of the subjects (severe hepatic impairment): 48 h
Maximum value of AUC0-24 h, severe hepatic impairment compared with control group (severe vs control group): ~ 5 fold
Maximum value of AUCinf, severe hepatic impairment compared with control group (severe vs control group): ~ 4 fold
Maximum value of AUClast, severe hepatic impairment compared with control group (severe vs control group): ~ 4 fold
Maximum value of Cmax, severe hepatic impairment compared with control group (severe vs control group): ~ 2 fold
SMILES: CC12CCC3c4ccc(O)cc4CCC3C1C(O)C(OC1OC(C(=O)O)C(O)C(O)C1O)C2O (stereo not shown) [E4-16-glucuronide]
